Results published in patent US20250263370A1 (Tay Therapeutics Limited, priority 2022, published 2025).
≈ marks a conversion by molar mass, not a printed value.

Columns and labels:
[1] = Plasma stability assay, rat plasma; assay type: in vitro ADME; conditions: Method 2 (10 μM)
How it was run: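 Compound at 5 μM final (0.5% DMSO) in one protocol or 10 μM (2% DMSO) in the other, incubated in plasma at 37° C.; samples taken 0–120 min and quenched with cold acetonitrile plus internal standard. LC-MS/MS gives percent remaining relative to the 0-min sample.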

[2] = Intrinsic clearance in liver microsomes, rat; assay type: in vitro ADME; conditions: Method 1; for half-life at 1 μM: rat, liver microsomes, pH 7.4, rat liver microsomes, read-out: Half-Life (T1/2) (min), Rat; for Half-Life (T1/2) (min), Rat: rat liver microsomes
How it was run: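 Compound at 1 μM (0.1–1% DMSO) incubated at 37 °C with mouse or rat liver microsomes (0.5 mg/mL protein) and 1 mM NADPH in PBS pH 7.4; samples taken up to 60 min and quenched in cold acetonitrile. LC-MS/MS of percent remaining gave half-life and CLint; no-NADPH controls run.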

[3] = Thermodynamic solubility in FaSSIF pH 6.5 buffer; assay type: physicochemical; conditions: for solubility thermodynamic / solubility thermodynamic at 24 h: FaSSIF buffer, 25 °C, pH 6.5, fassif, thermodynamic from solid; for solubility thermodynamic: Method 2 (LCMS, 25° C.); for Thermodynamic Solubility FaSSIF pH 6.5 (μM) / solubility thermodynamic at 24 h: Method 1 (UV-vis, 25° C., 24 hrs)
Experimental: FaSSIF v2 buffer is freshly prepared prior to use according to the suppliers' instructions and the pH adjusted to 6.5 using 1 M NaOH or 1 M HCl as required. From 1 mM working solution of test compound in DMSO, the λmax of the test compound is determined by scanning from 200 nm to 700 nm, in 1 nm steps with an EPOCH UV/Visible spectrophotometer (Biotek Instruments Inc.). A 12-point standard curve of compound concentration versus absorption at λmax is generated via two-fold serial dilutions of the 1 mM working solution with DMSO. Approximately 1 mg of test compound is accurately weighed into an Eppendorf tube and the appropriate volume of FaSSIF buffer is added to make a nominal concentration of 1 mg/mL. The tube is incubated on a rotator at 20 rpm, 25° C. for 24 hrs. Samples are then filtered using 0.45 μm filters (Sartorious, CAT #1776C) and the filtrate subjected to UV-vis spectroscopy analysis. The absorption at λmax is compared to the standard curve to determine the concentration of compound in solution after 24 hours.
FaSSIF buffer was prepared according to the suppliers' instructions and the pH adjusted to 6.5 using 1 M NaOH or 1 M HCl as required. […] A stir stick was added to each vial and vials sealed with a moulded PTDE/SIL 96-well plate cover. The plate was shaken at 25° C. at 1,100 rpm using an Eppendorf Thermomixer Comfort plate shaker. The plates were filtered using a vacuum manifold and diluted with a mixture of H2O and acetonitrile containing internal standard. The concentration of the test compound in the filtrate was determined by LCMS analysis with reference to the internal standards to determine the solubility in the buffer.

BRD4 BD1 = BRD4 BD1 (Homo sapiens (Human), UniProt O60885); experiment: NanoBRET bromodomain assay, NanoLuc-BRD4-BD1 fusion in HEK293 cells; assay type: cell-based; conditions: top concentration 10 μM
BRD4 BD2 = BRD4 BD2 (Homo sapiens (Human), UniProt O60885); experiment: NanoBRET bromodomain assay, NanoLuc-BRD4-BD2 fusion in HEK293 cells; conditions: for IC50: BRD4 BD2 (IC50), NanoBRET, HEK293 cells, top concentration 10 μM; for Fold selectivity: IC50 for BRD4 BD1 divided by IC50 for BRD4 BD2, qualitative if an IC50 is at the upper limit;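 for all read-outs here: tracer displacement BRET read in transfected cells after 2 h compound exposure at 37 °C, signal in milliBRET units corrected against no-tracer background wells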
Experimental: HEK293 cells were transfected using NanoLuc-BRD4-BD1 or NanoLuc-BRD4-BD2 fusion vectors and incubated at 37° C. in an atmosphere of 5% CO2 for 20-24 hours. The transfected cells were then dispensed into 96-well plates using 90 μl cell suspension per well containing 2×10^5 cells/mL in Opti-MEM and 1× final concentration of tracer. 90 μL per well of cell suspension without tracer was also dispensed into at least 3 wells as “No tracer control samples” for background correction. Serially diluted test compounds were prepared at 1000× concentration in DMSO and further diluted to 10× concentration in Opti-MEM. […] Plates were then incubated at 37° C. +5% 002 incubator for 2 hours. […] Donor emission (450 nm) and acceptor emission (610 nm) were measured using PHERAstar (BMG LabTech). For data analysis, the raw BRET ratio was generated and converted to milliBRET units with background correction using the formula: [(Acceptorsample/Donorsample−(Acceptorno tracer control/Donorno tracer control)]×1000. The mBU data was plotted as a function of compound concentration and IC50s for BRET assay were determined by nonlinear regression analysis of concentration response curves using the Collaborative Drug Discovery Vault software. The fold-selectivity was calculated by dividing the IC50 for BRD4 BD1 by the IC50 for BRD4 BD2.

[4] = Sprague-Dawley rat pharmacokinetics, IV and PO cassette dosing; assay type: in vivo; conditions: for PO F: PO 5 mg/kg; for half-life: male, Sprague-Dawley, rat, plasma, iv, 1 mg/kg, Method 1, read-out: IV T1/2 (converted)
How it was run: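 Male Sprague-Dawley rats (2 per arm) given up to 5 compounds in cassette, 1 mg/kg IV and 5 mg/kg PO, formulated in 5% DMSO/40% PEG-400/55% water. Plasma from serial blood samples was acetonitrile-precipitated and analysed by LC/MS/MS against matrix-matched standard curves.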

[5] = Intrinsic clearance in liver microsomes, mouse; assay type: in vitro ADME; conditions: pH 7.4, Method 2, read-out: Half-Life (T1/2) (min), Mouse
Experimental: From stock solution of compound on 10 mM DMSO, a working solution of 0.1 mM is prepared by diluting the compound in DMSO. 6.25 μL of a 20 mg/mL solution of microsomes in PBS pH 7.4 buffer is added to 216.25 μL PBS pH 7.4 buffer (final microsome concentration—0.5 mg/mL). 25 μL of 10 mM solution of NADPH in PBS pH 7.4 buffer is added to the incubations (final NADPH concentration—1 mM). The mixture is pre-warmed to 37° C. for 10 minutes. 2.5 μL of test compound working solution is added (final compound concentration—1 μM with 1% DMSO). Aliquots of 30 μL are taken from the reaction solution at 0.5, 5, 15, 30 and 60 minutes. The reaction was stopped by the addition of 5 volumes of cold acetonitrile with IS (100 nM alprazolam, 200 nM caffeine and 100 nM tolbutamide). Samples were centrifuged at 3, 220 g for 40 minutes. Aliquots of 100 μL of the supernatant are mixed with 100 μL of ultra-pure H2O and used for LC-MS/MS analysis. The percent compound remaining at each time point is calculated with respect to that of the 0.5 min sample. The data are analysed to calculate half-life. Control experiments are run without NADPH and blank samples are prepared using DMSO without the test compound.
A 50 mM stock solution (in DMSO) is prepared for the compound. From the stock solution, a working solution of 0.5 mM is prepared by diluting the compound in DMSO. This concentration of working solution is prepared considering a final concentration of 1 uM with 0.1% DMSO. The compound (1 μL of working solution) is spiked in PBS with pH 7.4 ([…]) at a concentration of 1 μM. Subsequently, 110 μL of 10 mM NADPH is added (as a co-factor). The sample is incubated at 37° C. for 15 min. Following this, pre-warmed liver microsomes (27.5 μL; final protein conc. 0.5 mg/mL) are added. The samples are then incubated at 37° C. Aliquots of samples are withdrawn at 0, 5, 15, 30, 45 and 60 min. The reaction is stopped by using chilled acetonitrile containing internal standard. The samples are centrifuged, and the supernatants analysed by LC-MS/MS. The percent compound remaining at each time point is calculated with respect to that of the 0 min sample. The data are then analysed to calculate half-life and intrinsic clearance (CLint). Control experiments are run without NADPH and blank samples are prepared using DMSO without the test compound.

Compound | Plasma Stability (% remaining at 120 minutes), Rat [1] [%] | half-life at 1 μM [2] [min] | solubility thermodynamic [3] [µM] | IC50 (BRD4 BD1) [µM] | IC50 (BRD4 BD2) [µM] | Fold selectivity (BRD4 BD2) | PO F ([4]; Method 1) [%] | half-life ([4]; IV 1 mg/kg) [h] | Half-Life (T1/2) (min), Rat [2] [min] | Thermodynamic Solubility FaSSIF pH 6.5 (μM) [3] [μM] | IV T1/2 ([4]; IV 1 mg/kg, Method 1) [h] | solubility thermodynamic at 24 h [3] [µM] | half-life at 1 μM [5] [min]
C#Cc1ccc(C(C)Oc2cc(C(=O)NCC)[nH]c2C(=O)NC)cc1 (single isomer, unassigned) [Example 70, N^5-ethyl-3-(1-(4-ethynylphenyl)ethoxy)-N^2-methyl-1H-pyrrole-2,5-dicarboxamide] | 92 | 60 | 365 (≈ 124 µg/mL) | ≥ 10 | < 0.05 | XXX (Fold >200) | 44 | 0.6 |  |  |  |  | 
CNC(=O)c1[nH]c(C(=O)N[C@H]2CC[C@H](OC)CC2)cc1OC(C)c1ccccc1 (single isomer, unassigned) [Example 99, N^5-(trans-4-methoxycyclohexyl)-N^2-methyl-3-(1-phenylethoxy)-1H-pyrrole-2,5-dicarboxamide] |  |  |  | ≥ 10 | 0.05 to 0.2 | XX (Fold >50 and ≤200) |  |  | 39 |  |  | 359 (≈ 143 µg/mL) | 
CNC(=O)c1[nH]c(C(=O)N[C@H]2CC[C@H](OC)CC2)cc1OC(C)c1ccccc1 (single isomer, unassigned) [Example 100, N^5-(trans-4-methoxycyclohexyl)-N^2-methyl-3-(1-phenylethoxy)-1H-pyrrole-2,5-dicarboxamide] |  |  |  | ≥ 10 | > 10 | — (Fold ≥0 and ≤2) |  |  | 19 | 377 |  |  | 
CNC(=O)c1[nH]c(C(=O)N[C@H]2CCOC2)cc1O[C@@H](C)c1ccccc1 [Example 113, N^2-methyl-3-((S)-1-phenylethoxy)-N^5-((S)-tetrahydrofuran-3-yl)-1H-pyrrole-2,5-dicarboxamide] |  |  |  | ≥ 10 | 0.2 to 1 | X (Fold >2 and ≤50) |  |  |  |  |  |  | > 60
CNC(=O)c1[nH]c(C(=O)N[C@@H]2CCOC2)cc1O[C@@H](C)c1ccccc1 [Example 114, N^2-methyl-3-((S)-1-phenylethoxy)-N^5-((R)-tetrahydrofuran-3-yl)-1H-pyrrole-2,5-dicarboxamide] |  |  |  | ≥ 10 | 0.2 to 1 | X (Fold >2 and ≤50) |  |  |  |  |  |  | > 60
CNC(=O)c1[nH]c(C(=O)NC23CC(C2)C3)cc1O[C@@H](C)c1ccccc1 [Example 117, (S)—N^5-(bicyclo [1.1.1]pentan-1-yl)-N^2-methyl-3-(1-phenylethoxy)-1H-pyrrole-2,5-dicarboxamide] |  |  |  | ≥ 10 | 0.05 to 0.2 | XX (Fold >50 and ≤200) |  |  |  |  |  |  | > 60
CNC(=O)c1[nH]c(C(=O)NC23CC(O)(C2)C3)cc1O[C@@H](C)c1ccccc1 [Example 118, (S)—N^5-(3-hydroxybicyclo [1.1.1]pentan-1-yl)-N^2-methyl-3-(1-phenylethoxy)-1H-pyrrole-2,5-dicarboxamide] |  |  |  | ≥ 10 | 0.05 to 0.2 | XX (Fold >50 and ≤200) |  |  |  |  |  |  | > 60

Second part, the compound after the results:

Plasma Stability (% remaining at 120 minutes), Rat [1] [%] | half-life at 1 μM [2] [min] | solubility thermodynamic [3] [µM] | IC50 (BRD4 BD1) [µM] | IC50 (BRD4 BD2) [µM] | Fold selectivity (BRD4 BD2) | PO F ([4]; Method 1) [%] | half-life ([4]; IV 1 mg/kg) [h] | Half-Life (T1/2) (min), Rat [2] [min] | Thermodynamic Solubility FaSSIF pH 6.5 (μM) [3] [μM] | IV T1/2 ([4]; IV 1 mg/kg, Method 1) [h] | solubility thermodynamic at 24 h [3] [µM] | half-life at 1 μM [5] [min] | Compound
85 | > 60 | 685 (≈ 258 µg/mL) | ≥ 10 | 0.05 to 0.2 | XX (Fold >50 and ≤200) |  |  |  |  |  |  |  | CNC(=O)c1[nH]c(C(=O)NC2CCC2)cc1OC(C)c1ccc(Cl)cn1 (single isomer, unassigned) [Example 33, 3-(1-(5-chloropyridin-2-yl)ethoxy)-N^5-cyclobutyl-N^2-methyl-1H-pyrrole-2,5-dicarboxamide]
 |  |  | ≥ 10 | > 10 | — (Fold ≥0 and ≤2) | 31 |  | >60 | 429 | 1.2 |  |  | CNC(=O)c1[nH]c(C(=O)N[C@H]2CC[C@H](O)CC2)cc1OC(C)c1ccccc1 (single isomer, unassigned) [Example 98, N^5-(trans-4-hydroxycyclohexyl)-N^2-methyl-3-(1-phenylethoxy)-1H-pyrrole-2,5-dicarboxamide]
 | 41 |  | ≥ 10 | > 10 | — (Fold ≥0 and ≤2) | 13 | 2.7 |  |  |  | 188 (≈ 64.2 µg/mL) |  | CNC(=O)c1[nH]c(C(=O)NC2CCC2)cc1OC(C)c1ccccc1 (single isomer, unassigned) [Example 102, N^5-cyclobutyl-N^2-methyl-3-(1-phenylethoxy)-1H-pyrrole-2,5-dicarboxamide]
 | 19 |  | ≥ 10 | 0.05 to 0.2 | XX (Fold >50 and ≤200) |  |  |  |  |  | 57 (≈ 23.1 µg/mL) |  | CNC(=O)c1[nH]c(C(=O)NC2CCC(F)(F)CC2)cc1OC(C)c1ccccc1 (single isomer, unassigned) [Example 103, N^5-(4,4-difluorocyclohexyl)-N^2-methyl-3-(1-phenylethoxy)-1H-pyrrole-2,5-dicarboxamide]
 |  |  | ≥ 10 | > 10 | — (Fold ≥0 and ≤2) |  |  | 10 | 47 |  |  |  | CNC(=O)c1[nH]c(C(=O)NC2CCC(F)(F)CC2)cc1OC(C)c1ccccc1 (single isomer, unassigned) [Example 104, N^5-(4,4-difluorocyclohexyl)-N^2-methyl-3-(1-phenylethoxy)-1H-pyrrole-2,5-dicarboxamide]
 |  |  | ≥ 10 | 0.05 to 0.2 | XX (Fold >50 and ≤200) |  |  |  |  |  |  | > 60 | CNC(=O)c1[nH]c(C(=O)N[C@H]2CC[C@H](O)C2)cc1O[C@@H](C)c1ccccc1 [Example 115, N^5-((1S,3S)-3-hydroxycyclopentyl)-N^2-methyl-3-((S)-1-phenylethoxy)-1H-pyrrole-2,5-dicarboxamide]
